Calls of active or inactive are those of the source.
How the values were obtained:
[1] = molecular target: T1, Cytochrome P450 1A2 (Homo sapiens, UniProt P05177);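 further: PubChem cytochrome P450 panel assay, CYP1A2 panel member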
T1 sequence (P05177 whole entry): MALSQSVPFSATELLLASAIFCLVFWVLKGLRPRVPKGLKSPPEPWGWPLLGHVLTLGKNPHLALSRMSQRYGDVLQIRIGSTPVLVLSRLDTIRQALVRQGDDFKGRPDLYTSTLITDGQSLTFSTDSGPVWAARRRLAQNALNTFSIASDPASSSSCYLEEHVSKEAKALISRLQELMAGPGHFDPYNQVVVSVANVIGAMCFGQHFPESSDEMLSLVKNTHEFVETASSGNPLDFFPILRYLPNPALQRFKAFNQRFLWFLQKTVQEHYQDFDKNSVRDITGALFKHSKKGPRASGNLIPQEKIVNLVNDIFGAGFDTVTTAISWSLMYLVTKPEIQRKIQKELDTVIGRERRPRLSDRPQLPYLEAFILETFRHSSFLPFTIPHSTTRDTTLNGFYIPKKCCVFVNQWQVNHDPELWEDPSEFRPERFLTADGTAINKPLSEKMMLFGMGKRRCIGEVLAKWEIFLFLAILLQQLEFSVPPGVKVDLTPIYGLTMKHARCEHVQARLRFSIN

[2] = molecular target: Cytochrome P450 3A4 (Homo sapiens, UniProt P08684);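 further: CYP3A4 tested as one member of a cytochrome P450 panel screen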
[3] = NIH-3T3 fibroblast cytotoxicity, dose response, cytotoxicity control, cell-based, fluorescence, Alamar Blue, secondary assay (AID 2327); format: functional;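 further: NIH-3T3 mouse fibroblasts cultured with fluconazole at 8 µg/mL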
[4] = C. albicans growth with fluconazole, confirmation, fluorescence, retest (AID 2467); format: functional, cell-based
[5] = molecular target: Cytochrome P450 2C9 (Homo sapiens, UniProt P11712)
[6] = inhibitors of firefly luciferase expression or activity, dose response, H4 neuroglioma cells, luminescence (AID 1990); format: functional, cell-based
[7] = Luminescence Cell-Based Dose Response HTS to Identify Inhibitors of 5'UTR Stem-Loop Driven Prion Protein mRNA Translation in H4 Neuroglioblastoma Cells. [Related pubchem assays: 1827 (Project Summary), 1813 (Primary HTS)]; format: functional
[8] = inhibitors of SNCA 5'UTR-driven reporter translation, confirmation, H4 neuroglioma cells, luminescence (AID 1988); format: functional, cell-based
[9] = molecular target: T2, Heat shock factor protein 1 (Mus musculus, UniProt P38532); assay: inhibition of MG132-induced HSE-luciferase signal, confirmation, cell-based, NIH3T3, luminescence, dose retest (AID 2382); format: functional;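 further: NIH3T3 fibroblasts with HSF1-driven luciferase reporter stressed by proteasome inhibitor MG132; luminescence from HSF1-driven luciferase expression after 8 hours of MG132 stress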
T2 sequence (P38532 whole entry): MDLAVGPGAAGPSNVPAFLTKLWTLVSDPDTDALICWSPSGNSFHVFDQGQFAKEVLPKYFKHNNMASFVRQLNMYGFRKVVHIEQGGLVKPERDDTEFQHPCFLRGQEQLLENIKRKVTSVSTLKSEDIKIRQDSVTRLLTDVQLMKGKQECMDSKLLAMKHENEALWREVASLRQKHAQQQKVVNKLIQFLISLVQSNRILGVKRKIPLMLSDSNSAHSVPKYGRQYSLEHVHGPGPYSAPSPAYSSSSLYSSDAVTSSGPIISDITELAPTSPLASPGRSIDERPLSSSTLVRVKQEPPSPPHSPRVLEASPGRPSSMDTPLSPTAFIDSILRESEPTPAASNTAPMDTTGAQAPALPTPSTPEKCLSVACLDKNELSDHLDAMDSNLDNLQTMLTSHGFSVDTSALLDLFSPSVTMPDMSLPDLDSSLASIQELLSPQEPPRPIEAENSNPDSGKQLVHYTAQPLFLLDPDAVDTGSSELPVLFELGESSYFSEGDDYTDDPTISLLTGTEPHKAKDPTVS

[10] = molecular target: Cytochrome P450 2C19 (Homo sapiens, UniProt P33261); assay: Cytochrome panel assay with activity outcomes. Panel member name: p450-cyp2c19 Compounds with AC50 equal or less than 10 uM are considered active; format: functional; conditions: read-out: AC50
[11] = test system: INS1; assay: beta cell apoptosis inhibitors, cytokine rescue, dose response, luminescence, retest (AID 449756); format: functional, cell-based; conditions: Rattus norvegicus;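 further: cell death triggered by IL-1 beta plus TNF-alpha plus IFN-gamma mixture; protective hits raise ATP signal compared with cytokine alone wells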
[12] = inhibitors of intracellular T. cruzi replication, confirmation, NIH3T3 host cells, beta-gal luminescence (AID 2044); format: functional, cell-based;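 further: intracellular parasites grown in NIH/3T3 mouse fibroblasts as host cells; luminescent beta-galactosidase reporter signal from transgenic T. cruzi replicating inside host cells; inhibitors lower the luminescence signal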
[13] = cytotoxicity toward NIH3T3 fibroblasts, dose response, counter-screen, cell-based, ATP luminescence, mouse fibroblasts (AID 2010); format: functional;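 further: cells exposed to compound for about 90 hours before reading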
[14] = molecular target: T3, Corticotropin-releasing factor receptor 2/Corticotropin-releasing factor-binding protein (Homo sapiens, UniProt P24387+Q13324); assay: activators of CRF receptor 2 with binding protein – uHTS hits, confirmation (AID 602473); format: functional; conditions: read-out: EC50_Mean
T3 sequence (Q13324 whole entry): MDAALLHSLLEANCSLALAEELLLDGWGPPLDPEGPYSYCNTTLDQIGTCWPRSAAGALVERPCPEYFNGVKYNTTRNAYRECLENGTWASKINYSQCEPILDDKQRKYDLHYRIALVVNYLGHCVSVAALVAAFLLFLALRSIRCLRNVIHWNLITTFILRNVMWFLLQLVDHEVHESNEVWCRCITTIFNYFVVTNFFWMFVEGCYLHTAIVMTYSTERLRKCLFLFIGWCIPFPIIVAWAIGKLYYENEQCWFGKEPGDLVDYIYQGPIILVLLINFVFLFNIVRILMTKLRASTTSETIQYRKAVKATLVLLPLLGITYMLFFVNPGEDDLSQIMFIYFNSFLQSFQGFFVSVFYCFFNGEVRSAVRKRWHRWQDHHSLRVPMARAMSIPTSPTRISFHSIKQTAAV
T3 sequence (P24387 whole entry): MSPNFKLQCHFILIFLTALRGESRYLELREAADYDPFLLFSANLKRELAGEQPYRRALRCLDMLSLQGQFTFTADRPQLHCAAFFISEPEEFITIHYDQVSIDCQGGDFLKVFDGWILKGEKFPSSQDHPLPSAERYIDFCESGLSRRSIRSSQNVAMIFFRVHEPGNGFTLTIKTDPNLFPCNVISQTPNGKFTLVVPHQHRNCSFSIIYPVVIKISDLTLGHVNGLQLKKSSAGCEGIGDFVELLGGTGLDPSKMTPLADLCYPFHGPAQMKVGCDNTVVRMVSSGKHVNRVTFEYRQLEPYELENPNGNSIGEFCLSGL

Chain of Cytochrome P450 3A4 (P08684 whole entry): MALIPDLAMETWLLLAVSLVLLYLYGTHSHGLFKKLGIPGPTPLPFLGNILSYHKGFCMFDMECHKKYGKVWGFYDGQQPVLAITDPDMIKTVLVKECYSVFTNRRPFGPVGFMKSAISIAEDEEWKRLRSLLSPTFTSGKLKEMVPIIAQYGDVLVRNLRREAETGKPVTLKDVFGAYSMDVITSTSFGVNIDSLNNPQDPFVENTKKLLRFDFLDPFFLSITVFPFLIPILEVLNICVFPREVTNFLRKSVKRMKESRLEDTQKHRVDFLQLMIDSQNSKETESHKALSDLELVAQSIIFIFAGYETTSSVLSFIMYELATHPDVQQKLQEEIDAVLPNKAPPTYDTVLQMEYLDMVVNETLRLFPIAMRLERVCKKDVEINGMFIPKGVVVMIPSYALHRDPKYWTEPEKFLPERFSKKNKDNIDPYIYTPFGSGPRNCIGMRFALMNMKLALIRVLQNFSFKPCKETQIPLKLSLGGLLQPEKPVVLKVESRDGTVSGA
Chain of Cytochrome P450 2C9 (P11712 whole entry): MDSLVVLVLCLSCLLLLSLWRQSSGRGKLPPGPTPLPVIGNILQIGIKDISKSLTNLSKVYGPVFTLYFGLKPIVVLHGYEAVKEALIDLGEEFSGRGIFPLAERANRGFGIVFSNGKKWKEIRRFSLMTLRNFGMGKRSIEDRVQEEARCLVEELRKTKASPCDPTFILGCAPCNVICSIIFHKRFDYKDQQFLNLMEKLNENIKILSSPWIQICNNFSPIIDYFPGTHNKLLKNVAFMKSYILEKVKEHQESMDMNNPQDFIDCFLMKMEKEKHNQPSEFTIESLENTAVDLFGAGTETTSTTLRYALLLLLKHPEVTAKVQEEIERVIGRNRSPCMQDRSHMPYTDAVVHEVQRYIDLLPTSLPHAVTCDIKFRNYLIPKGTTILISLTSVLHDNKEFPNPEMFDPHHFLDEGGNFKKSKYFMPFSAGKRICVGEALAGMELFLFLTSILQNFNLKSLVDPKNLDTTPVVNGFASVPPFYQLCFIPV
Chain of Cytochrome P450 2C19 (P33261 whole entry): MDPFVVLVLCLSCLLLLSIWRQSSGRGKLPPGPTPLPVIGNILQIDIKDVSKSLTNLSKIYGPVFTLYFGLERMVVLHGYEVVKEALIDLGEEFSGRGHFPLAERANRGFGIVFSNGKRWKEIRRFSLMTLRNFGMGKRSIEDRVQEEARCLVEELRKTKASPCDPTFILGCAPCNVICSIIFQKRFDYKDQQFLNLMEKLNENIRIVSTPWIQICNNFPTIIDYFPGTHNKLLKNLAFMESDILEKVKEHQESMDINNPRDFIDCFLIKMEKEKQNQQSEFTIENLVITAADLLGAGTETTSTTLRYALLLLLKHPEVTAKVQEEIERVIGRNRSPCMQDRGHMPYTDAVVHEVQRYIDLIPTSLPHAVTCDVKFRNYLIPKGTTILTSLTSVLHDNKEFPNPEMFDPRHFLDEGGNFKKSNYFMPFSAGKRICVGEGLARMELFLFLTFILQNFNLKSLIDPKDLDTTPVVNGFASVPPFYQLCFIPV

## CN(C)c1ccc(C(c2ccc(N(C)C)cc2)c2ccc([N+](=O)[O-])cc2)cc1
[1]
  AC50: 3.16 µM (inconclusive)
[2]
  AC50: 2 µM (inconclusive)

## Cc1ccsc1C(=O)OCC(=O)Nc1sccc1C(N)=O
[3]
  EC50: > 150 µM (inactive)
[4]
  EC50: 5.44 µM (active)

## COc1ccc(CNc2nc(-c3ccc(C(=O)N(C)C)cc3)nc3ccccc23)c(OC)c1
[2]
  AC50: 3.98 µM (inconclusive)
[5]
  AC50: 1 µM (inconclusive)

## COc1ccc(CNC(=O)c2coc(=O)c3ccccc23)c(OC)c1
[6]
  EC50: > 120 µM (not active)
[7]
  EC50: > 120 µM (not active)
[8]
  EC50: > 120 µM (not active)

## CC(C)[C@@H](C(=O)N1CCCC1)N1C(=O)N2CCc3c([nH]c4ccccc34)[C@@]2(C)C1=O
[6]
  EC50: > 120 µM (not active)
[7]
  EC50: > 120 µM (not active)
[8]
  EC50: > 120 µM (not active)

## CC1(C)CC(=O)C(CCC(=O)c2ccccc2)C(C)(C)N1 (stereo unspecified)
[9]
  EC50: > 195 µM (not active)
[10]
  AC50: 28.2 µM (inconclusive)
[2]
  AC50: 12.6 µM (inconclusive)

## Cc1nc(NCCc2ccc(S(N)(=O)=O)cc2)c2c(C)c(C)sc2n1
[11]
  AC50: 5.52 µM (active)

## N#Cc1c(N2CCCCC2)nc(N2CCCCC2)c2c1CCN(Cc1ccccc1)C2
[12]
  EC50: 0.505 µM (active)
[13]
  EC50: > 30 µM (not active)
[11]
  AC50: 12.7 µM (active)

## CN(C)c1oc(-c2ccccc2Cl)nc1C#N
[6]
  EC50: > 120 µM (not active)
[7]
  EC50: 19.6 µM (active)
[8]
  EC50: 33.3 µM (active)

## CC(=O)Nc1cccc(NC(=O)Nc2cccc(F)c2)c1
[3]
  EC50: > 150 µM (inactive)
[4]
  EC50: 3.22 µM (active)

## Cc1nnsc1-c1onc(C)c1C(=O)Nc1cc(Cl)cc(Cl)c1
[11]
  AC50: 12.8 µM (active)

## NNC(=O)c1cc(-c2cccs2)nc2ccccc12
[3]
  EC50: > 150 µM (inactive)
[4]
  EC50: > 38 µM (not active)

## COc1ccc(-c2oc3ncn(CCN4CCOCC4)c(=N)c3c2-c2ccc(OC)cc2)cc1
[6]
  EC50: 8.99 µM (active)
[7]
  EC50: 19.6 µM (active)
[8]
  EC50: 14.5 µM (active)

## C=CCSc1nnc(C)c(/C=C/Nc2ccc(Cl)cc2)n1
[14]
  EC50: 4.77 µM (active)

## CCOc1cc(CNc2ccc3c(c2)OCCO3)cc(Br)c1OC
[6]
  EC50: > 60 µM (inconclusive)
[7]
  EC50: 10.7 µM (active)

## O=C1C2C3C=CC([C@@H]2C(=O)N1C1CCCCC1)[C@H]1C(=O)N(C2CCCCC2)C(=O)C31 (stereo partly specified)
[10]
  AC50: 17.8 µM (inconclusive)
[2]
  AC50: 3.55 µM (inconclusive)
[5]
  AC50: 6.31 µM (inconclusive)

Reference: ChEMBL document CHEMBL1201862, “PubChem BioAssay data set” (2004)
